Test results from patent US11478445B2, “Method for treating acute myeloid leukemia” (Bionomics Limited, priority 2017, dated 2022).

Tests used:
[1] = tested on: primary AML samples (MNC); assay: Viability (Annexin V/7AAD) assay, AML samples; format: cell-based, human
Procedure: Cryopreserved mononuclear cells (MNC from BM or leukapheresis samples) were thawed in a water bath at 37° C. and cell suspension transferred to a 50 mL tube. 20 mL of IMDM media (Sigma, 13390) supplemented with 20% FBS (JRH Biosciences), 50 U/mL DNase I (Sigma), 100 IU/mL penicillin (Sigma), 100 μg/mL streptomycin (Sigma) and 2 mM L-glutamine (Sigma) was added dropwise to the cells while the tube was being vortexed slowly (or mixed by hand). The cells were centrifuged at 400 g for 5 min, supernatant was discarded and the cells were washed once with 20 mL PBS. […] The next morning, viability was determined by trypan blue exclusion and samples with viability lower than 85% underwent dead cell removal by density gradient centrifugation as follows: 15 mL of Lymphoprep (AXIS-Shield) was transferred to a 50 mL tube and the cell suspension (25 mL) carefully overlayed (so as not to disturb the interface mixing with the Lymphoprep). […] Viability and cell density were determined by trypan blue exclusion and cells were plated for respective experiments as described in the Results section.
2×10^5 cells (200 μL) were harvested in 5 mL tubes and washed 3 times with PBS. […] Results were analysed with FCS Express 4 Flow Research Edition software (De Novo Software). […]

AML cell lines = assay: Mitochondria O2.- assay (MitoSox, flow cytometry); format: cell-based
Procedure: 1.25×10^5 cells were harvested into 5 mL tubes and washed with PBS. Cell pellets were resuspended in 180 μL of PBS and 20 μL of freshly prepared 5 mM MitoSox (Molecular Probes, M36008) solution added to each tube. All tubes were incubated at 37° C. for 20 min and then cells washed 3 times with PBS. Cells were resuspended in 300 μL PBS and analysed on an LSRFortessa (BD Biosciences) flow cytometer. Results were analysed with FCS Express 4 Flow Research Edition software (De Novo Software).
For that, cells were plated at 10^6 cells/mL and treated with vehicle (DMSO) alone or a range of doses of EX 1 (0.1 nM, 1 nM, 10 nM and 100 nM) for 6 h, 8 h and 24 h. Cells were harvested for detection of ROS and superoxide anion (O2^·−) levels at 6 h and 24 h, for protein extraction at 8 h and 24 h, and for cell cycle analysis at 24 h.
Total ROS levels were measured by flow cytometry using the fluorogenic dye CM-H2DCFDA at a final concentration of 5 μM. Mitochondria superoxide anion (O2^·−) levels were measured by flow cytometry using MitoSox, also at a final concentration of 5 μM.

| Compound | viability (live cells, Annexin V/7AAD) ([1]; 48 h to 72 h) | mitochondria O2.- levels (AML cell lines; HL60 and ME1, 6 h) | mitochondria O2.- levels (AML cell lines; KG1) | mitochondria O2.- levels (AML cell lines; ME1, 24 h) | mitochondria O2.- levels (AML cell lines; MV4;11 and MOLM13, 24 h) | mitochondria O2.- levels (AML cell lines; OCI-AML3, 6 h) | mitochondria O2.- levels (AML cell lines; OCI-AML3, 24 h) | response to treatment (viability) [1] |
| --- | --- | --- | --- | --- | --- | --- | --- | --- |
| COc1cc(C(=O)c2c(C)oc3c(O)c(OC)ccc23)cc(OC)c1OC [EX 1, 2-Methyl-7-hydroxy-3-(3,4,5-trimethoxybenzoyl)-6-methoxybenzofuran] | viability decreasing substantially | showed a decrease in mitochondria O2^·− levels | did not respond to the drug treatment with any detectable changes | even greater effect observed at 24 h | increased mitochondria O2^·− levels observed at 24 h only | slight decrease | appeared to have increased O2^·− levels |  |
| COc1cc(/C=C\c2ccc(OC)c(OP(=O)(O)O)c2OP(=O)(O)O)cc(OC)c1OC [OXi4503, reference compound] |  |  |  |  |  |  |  | did not show a response |
